Our source for the IC50 values is US20240217978A1 (CHONG KUN DANG PHARMACEUTICAL CORP., priority 2021, published 2024).

For orientation: IC50 means the midpoint of a concentration-inhibition curve. A high value points to a need for much substance.

Sequence of human adenosine A2a receptor (P29274 whole entry): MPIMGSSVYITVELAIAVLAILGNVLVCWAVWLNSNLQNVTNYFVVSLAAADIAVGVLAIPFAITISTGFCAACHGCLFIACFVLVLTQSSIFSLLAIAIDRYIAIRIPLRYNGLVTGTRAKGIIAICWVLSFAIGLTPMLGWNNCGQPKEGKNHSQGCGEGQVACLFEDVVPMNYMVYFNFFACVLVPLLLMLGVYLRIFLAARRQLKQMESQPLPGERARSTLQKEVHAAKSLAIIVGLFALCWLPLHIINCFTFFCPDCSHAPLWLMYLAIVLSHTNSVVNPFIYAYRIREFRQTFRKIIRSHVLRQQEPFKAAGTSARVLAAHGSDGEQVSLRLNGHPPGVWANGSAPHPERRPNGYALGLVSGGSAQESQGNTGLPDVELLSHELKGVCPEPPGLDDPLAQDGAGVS

For this test, the target named is human adenosine A2a receptor (Homo sapiens (Human), UniProt P29274). The test is described as follows: A2a receptor binding affinity, [3H]-NECA radioligand binding test. Conditions: [3H]-NECA 37 nM; membrane from HEK-293 cells transfected with human adenosine A2a receptor. In a few lines:
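Membranes from HEK-293 cells expressing human A2a receptor were incubated with [3H]-NECA (final 37 nM) and compound for 1 h at room temperature in 50 mM Tris, 10 mM MgCl2, 1 mM EDTA, pH 7.4. Bound ligand was filtered on PEI-coated plates and counted by scintillation to derive IC50 (μM).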
`Nc1nc(N2CCC[C@H]2C(=O)N2CCN(C3CC3)CC2)nc2nc(-c3ccco3)nn12` [Example 139, (S)-(1-(7-amino-2-(furan-2-yl)-[1,2,4]triazolo[1,5-a][1,3,5]triazin-5-yl)pyrrolidin-2-yl)(4-cyclopropylpiperazin-1-yl)methanone]: the half-inhibitory concentration (IC50) came to 28 nM.
In the case of `COCCN1CCC(C2CCN(C(=O)[C@@H]3CCCN3c3nc(N)n4nc(-c5ccco5)nc4n3)CC2)CC1` [Example 266, (S)-(1-(7-amino-2-(furan-2-yl)-[1,2,4]triazolo[1,5-a][1,3,5]triazin-5-yl)pyrrolidin-2-yl)(1′-(2-methoxyethyl)-[4,4′-bipiperidin]-1-yl) methanone] it was 15 nM.
In the case of `C[C@@H]1CN(CC(C)(C)F)CCN1C(=O)[C@@H]1CCCN1c1nc(N)n2nc(-c3ccco3)nc2n1` [Example 374, ((S)-1-(7-amino-2-(furan-2-yl)-[1,2,4]triazolo[1,5-a][1,3,5]triazin-5-yl)pyrrolidin-2-yl)((R)-4-(2-fluoro-2-methylpropyl)-2-methylpiperazin-1-yl) methanone] it was 0.8 nM; in that of `Nc1nc(N[C@@H](Cc2ccccc2)C(=O)N2CCCN(Cc3ccccc3)CC2)nc2nc(-c3ccco3)nn12` [Example 20, (S)-2-((7-amino-2-(furan-2-yl)-[1,2,4]triazolo[1,5-a][1,3,5]triazin-5-yl)amino)-1-(4-benzyl-1,4-diazepan-1-yl)-3-phenylpropan-1-one], 20 nM.
In the case of `CC(C)(O)CC(=O)N1CCN(C(=O)[C@@H]2CCN2c2nc(N)c3nc(-c4ccco4)sc3n2)CC1` [Example 275, (S)-1-(4-(1-(7-amino-2-(furan-2-yl)thiazolo[5,4-d]pyrimidin-5-yl)azetidin-2-carbonyl)piperazin-1-yl)-3-hydroxy-3-methylbutan-1-one] it was 26 nM; in that of `CCCCN1CCN(C(=O)[C@H](CC(C)C)Nc2nc(N)n3nc(-c4ccco4)nc3n2)CC1` [Example 175, (S)-2-((7-amino-2-(furan-2-yl)-[1,2,4]triazolo[1,5-a][1,3,5]triazin-5-yl)amino)-1-(4-butylpiperazin-1-yl)-4-methylpentan-1-one], 12 nM.
In turn, `Nc1nc(N[C@H](C(=O)N2CCN(CC(F)(F)F)CC2)C2CCCC2)nc2nc(-c3ccco3)nn12` [Example 217, (S)-2-((7-amino-2-(furan-2-yl)-[1,2,4]triazolo[1,5-a][1,3,5]triazin-5-yl)amino)-2-cyclopentyl-1-(4-(2,2,2-trifluoroethyl)piperazin-1-yl)ethan-1-one] returned an IC50 of 3 nM.
For `COc1cccc(CN2CCN(C(=O)[C@H](C)Nc3nc(N)n4nc(-c5ccco5)nc4n3)CC2)c1` [Example 24, (S)-2-((7-amino-2-(furan-2-yl)-[1,2,4]triazolo[1,5-a][1,3,5]triazin-5-yl)amino)-1-(4-(3-methoxybenzyl)piperazin-1-yl)propan-1-one], the IC50 turned out to be 33 nM.
In the case of `Nc1nc(N[C@@H](Cc2ccccc2)C(=O)N2CCC(N3CCOCC3)CC2)nc2nc(-c3ccco3)nn12` [Example 19, (S)-2-((7-amino-2-(furan-2-yl)-[1,2,4]triazolo[1,5-a][1,3,5]triazin-5-yl)amino)-1-(4-morpholinopiperidin-1-yl)-3-phenylpropan-1-one] it was 15 nM; in that of `COC[C@H](Nc1nc(N)n2nc(-c3ccco3)nc2n1)C(=O)N1CCN(CC(C)(C)F)CC1` [Example 303, (S)-2-((7-amino-2-(furan-2-yl)-[1,2,4]triazolo[1,5-a][1,3,5]triazin-5-yl)amino)-1-(4-(2-fluoro-2-methylpropyl)piperazin-1-yl)-3-methoxypropan-1-one], 6 nM.
In the case of `COC[C@H](Nc1nc(N)n2nc(-c3ccco3)nc2n1)C(=O)N1CCN(C2CCC(F)(F)CC2)CC1` [Example 398, (S)-2-((7-amino-2-(furan-2-yl)-[1,2,4]triazolo[1,5-a][1,3,5]triazin-5-yl)amino)-1-(4-(4,4-difluorocyclohexyl)piperazin-1-yl)-3-methoxypropan-1-one] it was 20 nM; in that of `Nc1nc(N2CCC[C@H]2C(=O)N2CCN(C3CC4CCC3C4)CC2)nc2nc(-c3ccco3)nn12` (stereo partly drawn) [Example 156, ((S)-1-(7-amino-2-(furan-2-yl)-[1,2,4]triazolo[1,5-a][1,3,5]triazin-5-yl)pyrrolidin-2-yl)(4-(bicyclo[2.2.1]heptan-2-yl)piperazin-1-yl)methanone], 12 nM.
With `Nc1nc(N[C@H](C(=O)N2CCN(c3ccc(F)cc3F)CC2)c2ccccc2)nc2nc(-c3ccco3)nn12` [Example 7, (S)-2-((7-amino-2-(furan-2-yl)-[1,2,4]triazolo[1,5-a][1,3,5]triazin-5-yl)amino)-1-(4-(2,4-difluorophenyl)piperazin-1-yl)-2-phenylethan-1-one] the figure was 6.72 nM; with `Nc1nc(N[C@@H](CO)C(=O)N2CCN(Cc3ccccc3)CC2)nc2nc(-c3ccco3)nn12` [Example 233, (S)-2-((7-amino-2-(furan-2-yl)-[1,2,4]triazolo[1,5-a][1,3,5]triazin-5-yl)amino)-1-(4-benzylpiperazin-1-yl)-3-hydroxypropan-1-one], 14 nM; with `Nc1nc(N2CCC[C@H]2C(=O)N2CCN(CC(F)F)CC2)cc2nc(-c3ccco3)nn12` [Example 293, (S)-(1-(5-amino-2-(furan-2-yl)-[1,2,4]triazolo[1,5-c]pyrimidin-7-yl)pyrrolidin-2-yl)(4-(2,2-difluoroethyl)piperazin-1-yl)methanone], 3 nM.
`Nc1nc(N2CCC[C@H]2C(=O)N2CCC(C3CCN(CC(F)F)CC3)CC2)nc2nc(-c3ccco3)nn12` [Example 287, (S)-(1-(7-amino-2-(furan-2-yl)-[1,2,4]triazolo[1,5-a][1,3,5]triazin-5-yl)pyrrolidin-2-yl)(1′-(2,2-difluoroethyl)-[4,4′-bipiperidin]-1-yl)methanone] gave an IC50 of 3 nM.
In the case of `Nc1nc(N2CC[C@H]2C(=O)N2CCN(c3ncccn3)CC2)nc2nc(-c3ccco3)nn12` [Example 242, (S)-(1-(7-amino-2-(furan-2-yl)-[1,2,4]triazolo[1,5-a][1,3,5]triazin-5-yl)azetidin-2-yl)(4-(pyrimidin-2-yl)piperazin-1-yl)methanone] it was 9 nM; in that of `CC(C)(O)CN1CCC(C2CCN(C(=O)[C@@H]3CCN3c3cc4nc(-c5ccco5)nn4c(N)n3)CC2)CC1` [Example 381, (S)-(1-(5-amino-2-(furan-2-yl)-[1,2,4]triazolo[1,5-c]pyrimidin-7-yl)azetidin-2-yl)(1′-(2-hydroxy-2-methylpropyl)-[4,4′-bipiperidin]-1-yl)methanone], 9 nM; in that of `Nc1nc(N2CCC[C@H]2C(=O)N2CCN(CC3CCC(C(F)(F)F)CC3)CC2)nc2nc(-c3ccco3)nn12` (stereo partly drawn) [Example 330, (S)-(1-(7-amino-2-(furan-2-yl)-[1,2,4]triazolo[1,5-a][1,3,5]triazin-5-yl)pyrrolidin-2-yl)(4-((4-(trifluoromethyl)cyclohexyl)methyl)piperazin-1-yl)methanone], 11 nM.
In the case of `Nc1nc(N[C@@H](CN2CCCCC2)C(=O)N2CCN(c3ccc(F)cc3F)CC2)nc2nc(-c3ccco3)nn12` [Example 272, (S)-2-((7-amino-2-(furan-2-yl)-[1,2,4]triazolo[1,5-a][1,3,5]triazin-5-yl)amino)-1-(4-(2,4-difluorophenyl)piperazin-1-yl)-3-(piperidin-1-yl)propan-1-one] it was 15 nM; in that of `Nc1nc(N[C@@H](CO)C(=O)N2CCN(CC(F)(F)F)CC2)nc2nc(-c3ccco3)nn12` [Example 231, (S)-2-((7-amino-2-(furan-2-yl)-[1,2,4]triazolo[1,5-a][1,3,5]triazin-5-yl)amino)-3-hydroxy-1-(4-(2,2,2-trifluoroethyl)piperazin-1-yl)propan-1-one], 5 nM; in that of `CCCCN1CCN(C(=O)[C@@H]2CCN2c2nc(N)n3nc(-c4ccco4)nc3n2)CC1` [Example 111, (S)-(1-(7-amino-2-(furan-2-yl)-[1,2,4]triazolo[1,5-a][1,3,5]triazin-5-yl)azetidin-2-yl)(4-butylpiperazin-1-yl)methanone], 8 nM.
`Nc1nc(N[C@@H](Cc2ccccc2)C(=O)N2CCN(S(=O)(=O)c3ccccc3)CC2)nc2nc(-c3ccco3)nn12` [Example 6, (S)-2-((7-amino-2-(furan-2-yl)-[1,2,4]triazolo[1,5-a][1,3,5]triazin-5-yl)amino)-3-phenyl-1-(4-(phenylsulfonyl)piperazin-1-yl)propan-1-one]: the IC50 came to 0.214 nM.
The molecule `Nc1nc(N[C@@H](Cc2ccccc2)C(=O)N2CCC(Cc3ccccc3)CC2)nc2nc(-c3ccco3)nn12` [Example 2] displayed an IC50 of 1 nM.
In the case of `CCCCN1CCC(C2CCN(C(=O)[C@@H]3CCCN3c3nc(N)n4nc(-c5ccco5)nc4n3)CC2)CC1` [Example 265, (S)-(1-(7-amino-2-(furan-2-yl)-[1,2,4]triazolo[1,5-a][1,3,5]triazin-5-yl)pyrrolidin-2-yl)(1′-butyl-[4,4′-bipiperidin]-1-yl)methanone] it was 44 nM.
With `CCC(F)(F)CN1CCN(C(=O)[C@@H]2CCN2c2nc(N)n3nc(-c4ccco4)nc3n2)CC1` [Example 254, (S)-(1-(7-amino-2-(furan-2-yl)-[1,2,4]triazolo[1,5-a][1,3,5]triazin-5-yl)azetidin-2-yl)(4-(2,2-difluorobutyl)piperazin-1-yl)methanone] the figure was 12 nM; with `CCC(F)(F)CN1CCN(C(=O)[C@@H]2CCCN2c2cc3nc(-c4ccco4)nn3c(N)n2)CC1` [Example 295, (S)-(1-(5-amino-2-(furan-2-yl)-[1,2,4]triazolo[1,5-c]pyrimidin-7-yl)pyrrolidin-2-yl)(4-(2,2-difluorobutyl)piperazin-1-yl)methanone], 1 nM.
Molecule `Nc1nc(N2CCC[C@H]2C(=O)N2CCN(C(=O)C3(C(F)(F)F)CCCC3)CC2)nc2nc(-c3ccco3)nn12` [Example 76] had an IC50 of 2 nM.
